In US20160136284A1, “GLIOMA TREATMENT” (priority 2012, published 2016):

How the values were obtained:
[1] = Tissue distribution and half-life of carboplatin after CED into rat brain (LA-ICP-MS); format: in vivo
Description: Male Wistar rats (Charles River, UK) were group-housed and allowed to acclimatise prior to experimental procedures. Rats weighing 225 to 275 g were anaesthetised with an intraperitoneal dose of medetomidine (Dormitor; 0.4 mg/kg; Pfizer Animal Health, Kent, UK) and ketamine (Ketaset; 100 mg/kg; Pfizer, UK) and placed in a stereotactic frame (Stoelting Co, Wood Dale, Ill. USA). A linear incision was made between the glabella and the occiput and the skull exposed. Burr holes with a diameter of approximately 2 mm were drilled 1.0 mm anterior and 2.5 mm lateral to the bregma and cannulae were inserted to a depth of 2.5 mm below the dura. All cannulae were pre-primed with either saline or carboplatin and the desired dose prior to insertion into the brain. Every attempt was made to ensure that no air bubbles were present in the infusion cannula. Infusions of 2.5 μl of carboplatin at specific concentrations (outlined in Table 1) were conducted at a rate of 5 μl/min. Following infusion completion, the cannula was left in-situ for 10 min before being withdrawn at a rate of 1 mm/min. The wound was then closed with 5.0 Vicryl (Ethicon, Gargrave, UK) a dose of intramuscular buprenorphine was administered (Vetergesic; 0.03 mg/kg; Alstoe Animal Health, York, UK) and the anaesthetic was reversed with an intraperitoneal dose of atipamezole hydrochloride (Antisedan; 5 mg/kg; Pfizer, UK). […]
Resultant data (.csv files) was in the form of signal response for each monitored isotope (separate columns) against time; as such, ion-responses could be co-ordinated to form 2D elemental distribution maps, using the Graphis software package (Kylebank Software Ltd, Ayr, UK).
The laser ablation (LA) system was configured to perform multiple, parallel line-rastering of sections. […] Isotopes (^13C, ^57Fe, ^66Zn, ^157Gd and ^195Pt) were monitored in a time-resolved mode and selected on the basis of high-percentage abundance and minimal isobaric and polyatomic interferences. […]

[2] = test system: SNB19 and UPAB glioma cells; assay: MTT cytotoxicity assay in glioma cell lines; format: cell-based
Description: Cell lines were kindly provided by Geoffrey Pilkington from the Institute of Biomedical and Biomolecular Sciences at Portsmouth University, UK. The cell lines used in this study were SNB19 (P20-P45) and UPAB (P20-P45).
Briefly, SNB19 and UPAB glioma cells were plated at 1×10^4/well in a 24-well plate. Cells were treated 72 hours later with Carboplatin at the following concentrations: 0.06 mg, 0.12 mg, 0.18 mg, 0.24 mg, 0.3 mg, 0.36 mg, and 0.6 mg (TEVA, UK) for 24, 48, 72, or 96 hours. Each concentration was repeated 4 times. Carboplatin was diluted in phosphate buffered saline (PBS; Sigma Aldrich, UK) and added to 0.5 mL culture media. PBS was used as a negative control and Puromycin dihydrochloride (10 μg/mL; Sigma Aldrich, UK), which inhibits cell growth by preventing protein synthesis, was used as a positive control. Following the incubation period, culture media was changed. Then 50 μL Methylthiazolyl-tetrazolium bromide solution (MTT; Sigma Aldrich, UK; 5 mg/mL) was added to each well and further incubated for 3 hours at 37° C. in a humidified 5% CO2 atmosphere to allow MTT to form formazan crystals in metabolically active cells. Following this, media was removed, and the formazan crystals in each well were solubilized with 190 μL of isopropanol (Fisher Scientific, Loughborough, UK) acidified with hydrochloric acid (VWR, Leicestershire, UK). The cell lysate was transferred to a 96 well plate and the absorbance of each well was measured at 570 nm using a Multiskan Ascent plate reader (Thermo Electron Corporation, UK). Results are expressed as a percentage (%) of treated versus untreated cells.

GBM = settings: 4 consecutive sets of infusions at 0.03 mg/ml, assuming 50% kill per set
Description: This is a phase I, single centre, dose-escalation study, of carboplatin administered by CED, into the peritumoural region of patients with recurrent or progressive GBM, following tumour resection. The study will incorporate six cohorts, with three patients in each cohort.
Following tumour resection (study day 0), patients undergo a baseline MRI scan (study day 10-21), followed within 24 hours by catheter implantation. For patients with progressive multifocal disease in whom re-resection is not felt to be appropriate, catheters are implanted following a baseline MRI scan. Prior to catheter implantation, patients are loaded with phenytoin (unless allergic) and will be kept on this anticonvulsant during the duration of their infusions. In the event of allergy to phenytoin, patients are administered an alternative anticonvulsant during this time period. […] Catheter tip location is determined at the operating surgeon's discretion, and will be based on diffusion imaging-based fibre-tracking using iPlan Flow (Brainlab, Germany) and experience gained in animal models and previous patients. Up to four catheters are implanted per patient under general anaesthetic and attached to connector tubing, which will be tunnelled to a subcutaneous access device incorporating in-line bacterial filters, implanted in the infraclavicular fossa. […]

N.N.O=C([O-])C1(C(=O)[O-])CCC1.[Pt+2] [carboplatin]
distribution in rat brain at 0 hours post-infusion ([1]; 0.03 mg/ml by CED into corpus callosum): widespread distribution
time platinum detectable by LA-ICP-MS ([1]; 0.03 mg/ml by CED into rat corpus callosum): up to 24 hours
time carboplatin remains in the brain ([1]; rat, CED): at least 24 hours
concentration above which increase in cell kill is negligible ([2]; 72 hour exposure): 0.24 mg/mL
concentration above which increase in cell kill is negligible ([2]; 96 hour exposure): 0.18 mg/mL
cell kill ([2]; 96 hour exposure, 0.18 mg/ml): greater than 90%
theoretical tumour cell kill (GBM): 94%
